The test system of one series is MDA-MB-231 cell line. The series is described as follows: Comet assay for DNA damage, MDA-MB-231. It is filed as cell-based, human. The following applies: 50 μM IPA/NO-aspirin, 75 μM DEA/NO-aspirin. As for the experimental part:
The pathological aspect of high ROS is the ability to cause oxidative damage to DNA. To further investigate this possibility, the effect of NONO-aspirin was studied on DNA damage using a comet assay in the MDA-MB-231 cell line.
Cells were plated at a concentration of 50,000 cells per well in a 12 well plate and grown overnight. Cells were treated with 50 μM IPA/NO-aspirin and 75 μM DEA/NO-aspirin for 12 h and the assay was conducted using a comet assay kit (Cat No. 4250-050-K, Trevigen, Md.) as described in the manufacturer's instructions.

For series [1], the target named is glyceraldehyde-3-phosphate dehydrogenase (GAPDH) (Homo sapiens, UniProt P04406). The series is described as follows: GAPDH activity, MCF-10A. The class given is cell-based. Details: endogenous in cells. The following applies: MCF-10A cell line. On the procedure: Cells were plated at a concentration of 30,000 cells per well and grown overnight. Cells were treated with 100 μM IPA/NO-aspirin and DEA/NO-aspirin for 1, 3, and 6 h after which 200 μL of KDalert lysis buffer was added to each well. The plate was incubated at 4° C. for 20 min to lyse the cells. 10 μL of cell lysate was transferred to a clean 96 well plate and 90 μL of KDalert mastermix was added to each well and the fluorescence was measured at excitation of 540 nm and emission of 570 nm.
glyceraldehyde-3-phosphate dehydrogenase (GAPDH), sequence (P04406 whole entry): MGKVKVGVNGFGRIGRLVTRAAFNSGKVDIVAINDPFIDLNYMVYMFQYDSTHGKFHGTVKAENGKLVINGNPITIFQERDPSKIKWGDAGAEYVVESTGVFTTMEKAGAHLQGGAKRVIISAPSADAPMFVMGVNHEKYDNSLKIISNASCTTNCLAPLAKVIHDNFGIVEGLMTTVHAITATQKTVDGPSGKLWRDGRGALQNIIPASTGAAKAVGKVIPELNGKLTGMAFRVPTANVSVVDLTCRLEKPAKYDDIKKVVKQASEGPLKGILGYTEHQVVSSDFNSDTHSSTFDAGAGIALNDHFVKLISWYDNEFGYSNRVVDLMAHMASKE

For series [2], the system named is MB-231 cells stably transfected with green fluorescent protein (GFP). Nature of the series: Tumor size in nude mice implanted with MB-231-GFP cells. The conditions noted are these: daily injection for 5 weeks, equi-molar dosages, compared to control. It is filed as in vivo. On the procedure:
40 Nude mice were implanted with 7.5E5 MB-231 cells stably transfected with green fluorescent protein (GFP) per animal and allowed to grow for 14 days. The animals were randomly divided into four groups: untreated as a control, aspirin treated, IPA/NO-aspirin and DEA/NO-aspirin. Treated groups were injected daily with equi-molar dosages of the corresponding compounds (DEA/NO-aspirin=16.25 mg/Kg, IPA/NO-aspirin=15.75 mg/Kg, Aspirin=9 mg/Kg) for the next 5 weeks daily and the tumor size was measured using in vivo fluorescent imaging for quantification of the GFP tag (FIG. 9A (mammary tumor) and FIG. 9B (brain tumor)). The animals were then sacrificed to assess their brain for metastasis.

Series [3] can be described thus: Kinetic profile of NO and HNO release / stability in buffer. It is filed as physicochemical. The following applies: phosphate buffer pH 7.4, several hours. On the procedure:
The newly synthesized HNO-releasing aspirin (IPA/NO-aspirin, 4) and NO-releasing aspirin (DEA/NO-aspirin, 8) were evaluated for the kinetic profile of NO and HNO release in buffer and cells.

Another series concerns stomach ulcers. The series is described as follows: Ulcerogenicity (ulcer index) after oral administration. The class given is in vivo, rats. The conditions noted are these: for Ulcer Index: 6 h after oral administration, equivalent to 250 mg/kg aspirin; for UI (ulcer index): as given in the text. As for the experimental part: Ulcerogenicity was evaluated 6 h after oral administration of 250 mg/kg of aspirin (250 mg/kg) and an equivalent amount of the corresponding test compound. The compounds were suspended in 1.7 mL of a 1% methylcellulose solution and administered. The control rats received oral administration of a vehicle (1.7 mL of 1.0% methylcellulose solution). The rats were euthanized in a CO2 chamber and their stomachs and placed on ice and then the ulcers were studied using magnifying glass.

Another series has as its system COX-2 mRNA. The series is described as follows: COX mRNA levels. The class given is cell-based. The conditions noted are these: Control 1.0. An excerpt:
PGE2 levels are a direct measure of COX-2 activity. […] Increased COX-2 expression in the presence of aspirin has been reported previously (Davies et al., Alimentary Pharm. & Ther. 11(6):1101-08 (1997))). Both DEA/NO and DEA/NO-aspirin seem to augment the effect of aspirin while IPA/NO and IPA/NO-aspirin nullifies the effect and brings it back to the control level (Table 3).

Series [4] concerns reactive oxygen species (ROS). The series is described as follows: ROS level with DCF. It is filed as cell-based. The conditions noted are these: 100 μM. As for the experimental part:
To investigate the role of ROS in apoptosis, the ROS level was studied in the presence of the compounds in a time dependent manner using 2′,7′-dichlorofluorescein (DCF) in all four cell lines. Cells were plated at a concentration of 30,000 cells per well and grown overnight. Cells were treated with 100 μM DCF (Sigma Aldrich) and incubated for 30 min at 37° C. The cells were then washed five times with PBS pH 7.4 and 100 μM of IPA/NO-aspirin, DEA/NO-aspirin, IPA/NO, DEA/NO and aspirin were added.

A further series deals with MB-231 cells. The series is described as follows: MTT cell survival, MDA-MB-231. The conditions noted are these: MTT assay. The class given is cell-based, human. As for the experimental part: MDA-MB-231, MCF-7 and MDA-MB-468, human breast carcinoma cell lines and MCF-10A, breast […] (American Type Culture Collection, Manassas, Va.) were grown as monolayers in RPMI 1640 supplemented with 10% FCS (Hyclone), penicillin (50 units/ml), streptomycin ([…]; Life Technologies, Inc., Grand Island, N.Y.) and endothelial growth media (Lonanza) respectively. Cells were seeded at a density of 1×10^6 cells/100-cm^2 culture dish and incubated at 37° C. in 5% CO2 and 80% relative humidity. Single-cell suspensions were obtained by trypsinization (0.05% trypsin/EDTA), and cells were counted using a Beckman cell counter.
1000× stock solutions aspirin, of a DEA/NO-ASA, and IPA/NO-ASA were made in DMSO and final concentration in the media or PBS was adjusted to 0.1% DMSO.
The effect of NONO-aspirin on cell proliferation was studied using an MTT assay. The effect of DEA/NO-ASA, IPA/NO-ASA, aspirin, IPA/NO and DEA/NO was measured using the MTT assay. Cells were plated at a concentration of 8,000-10,000 cells per well in a 96 well plate and grown overnight. Cells were treated with different concentrations of the compounds and controls for 48 h. After 48 h, a solution of 5 mg/ml MTT was added to each well and incubated for 1 h. Then the media was removed from each well and 100 uL DMSO was added to each well and the absorbance was read at 550 nm. […]
On the technique in general: Tetrazolium dyes change colour on reduction, which living cells bring about.

One may read the IC50 as the midpoint of a concentration-inhibition curve. Low values mean greater potency in that assay, high ones weaker potency in that assay. On to `CC(=O)Oc1ccccc1C(=O)OCON=[N+]([O-])NC(C)C` [IPA/NO-aspirin, O^2-(Acetylsalicyloyloxymethyl)-1-(N-isopropylamino)-diazen-1-ium-1,2-diolate], for which, in the series with MDA-MB-231 cell line, the “DNA damage (comet assay)” value is reported as “significant DNA damage”. In series [1], the GAPDH Activity result is given as “did not inhibit GAPDH activity”. In addition, the tumor size entry in series [2] is “effective in reducing the tumor size”. Further, in series [3], the “stability in phosphate buffer” value was “relatively stable”. Also, in the series with stomach ulcers, the “Ulcer Index” value is on record as 3.3 ± 3 mg/kg and the “UI (ulcer index)” value was 3.0+3.0. In the series with COX-2 mRNA, the “COX-2 mRNA level relative to control” value is 0.8. For the same compound, the ROS level entry in series [4] is on record as “significant increase in ROS level”. In addition, the IC50 with MB-231 cells stood at 95 µM.
In the case of `CCN(CC)[N+]([O-])=NOCOC(=O)c1ccccc1OC(C)=O` [DEA/NO-aspirin, O^2-(Acetylsalicyloyloxymethyl)-1-(N,N-Diethylamino)-diazen-1-ium-1,2-diolate], the “DNA damage (comet assay)” value in the series with MDA-MB-231 cell line was “comparable to the DMSO treated control”. Further, the tumor size result in series [2] is given as “effective in reducing the tumor size”. Moreover, the “stability in phosphate buffer” value in series [3] is “relatively stable”. Further, in the series with stomach ulcers, the “Ulcer Index” value is given as 0 mg/kg and the “UI (ulcer index)” value amounted to 0. The “COX-2 mRNA level relative to control” value in the series on COX-2 mRNA came out at 6.5. The ROS level result in series [4] is “much lower”. Also, half-maximal inhibition in the series with MB-231 cells (IC50) required 90 µM.
